According to PubChem BioAssay AID248 (DTP/NCI, 2004):
Several values for one entry are separate records, joined by “and”; a condition that tells them apart may be missing. Equal values may be shown once. Toxic doses and inconclusive results are not listed. Rule as the data show it: active = T/C of 150% or more; inactive = T/C below 125%.

Test system: L1210 leukemia ip in BDF1 mice, survival T/C
Experiment: NCI In Vivo Anticancer Drug Screen. Data for tumor model L1210 Leukemia (intraperitoneal) in B6D2F1 (BDF1) mice
Conditions: endpoint: mean survival time, higher = longer survival
How it was run: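 Mice bearing the transplanted tumor received compound or vehicle. Survival of the treated group was divided by that of the vehicle-treated control group to give the ratio.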

[1] = dose: 100.0 mg/kg/injection, schedule: Q01DX009 (ip), vehicle: saline with Tween-80
[2] = dose: 100.0 mg/kg/injection, schedule: Q04DX002 (ip), vehicle: saline with Tween-80
[3] = dose: 200.0 mg/kg/injection, schedule: Q04DX002 (ip), vehicle: saline with Tween-80
[4] = dose: 100.0 mg/kg/injection, schedule: Q04DX003 (ip), vehicle: saline
[5] = dose: 200.0 mg/kg/injection, schedule: Q04DX003 (ip), vehicle: saline

Measured: T/C

CCC1(O)CC(OC2CC(N(C)C)C(OC3CC4OC5CC(=O)C(C)OC5OC4C(C)O3)C(C)O2)c2c(cc3c(c2O)C(=O)c2c(O)ccc(O)c2C3=O)C1C(=O)OC (stereo not given)
inactive: dose: 0.01 mg/kg/injection, schedule: Q01DX Z (ip), vehicle: saline 108 % of control and 88 % of control | dose: 0.16 mg/kg/injection, schedule: Q01DX Z (ip), vehicle: saline 98 % of control and 88 % of control | dose: 0.18 mg/kg/injection, schedule: Q03HX008 (ip), vehicle: saline with Tween-80 94 % of control and 90 % of control | dose: 0.18 mg/kg/injection, schedule: Q03HX024 (ip), vehicle: saline with Tween-80 93 % of control and 102 % of control | dose: 0.25 mg/kg/injection, schedule: Q01DX Z (ip), vehicle: other 103 % of control | dose: 0.25 mg/kg/injection, schedule: Q01DX Z (ip), vehicle: saline 94 % of control and 105 % of control | dose: 0.37 mg/kg/injection, schedule: Q03HX008 (ip), vehicle: saline with Tween-80 94 % of control and 100 % of control | dose: 0.37 mg/kg/injection, schedule: Q03HX024 (ip), vehicle: saline with Tween-80 99 % of control and 102 % of control | dose: 0.5 mg/kg/injection, schedule: Q01DX Z (ip), vehicle: other 112 % of control | dose: 0.5 mg/kg/injection, schedule: Q01DX Z (ip), vehicle: saline 113 % of control and 120 % of control | dose: 0.75 mg/kg/injection, schedule: Q01DX009 (ip), vehicle: saline with Tween-80 98 % of control | dose: 0.75 mg/kg/injection, schedule: Q03HX008 (ip), vehicle: saline with Tween-80 105 % of control and 109 % of control | dose: 0.75 mg/kg/injection, schedule: Q03HX024 (ip), vehicle: saline with Tween-80 105 % of control and 107 % of control | dose: 1.0 mg/kg/injection, schedule: Q01DX015 (ip), vehicle: saline 123 % of control | dose: 1.0 mg/kg/injection, schedule: Q01DX Z (ip), vehicle: other 123 % of control | dose: 1.1 mg/kg/injection, schedule: Q04DX003 (ip), vehicle: saline 107 % of control | dose: 1.25 mg/kg/injection, schedule: Q04DX003 (ip), vehicle: saline 106 % of control | dose: 1.5 mg/kg/injection, schedule: Q01DX001 (ip), vehicle: saline with Tween-80 93 % of control and 95 % of control | dose: 1.5 mg/kg/injection, schedule: Q01DX009 (ip), vehicle: saline with Tween-80 111 % of control | dose: 1.5 mg/kg/injection, schedule: Q01DX Z (ip), vehicle: other 120 % of control | dose: 1.5 mg/kg/injection, schedule: Q03HX008 (ip), vehicle: saline with Tween-80 114 % of control | dose: 1.5 mg/kg/injection, schedule: Q03HX024 (ip), vehicle: saline with Tween-80 98 % of control and 106 % of control | dose: 1.5 mg/kg/injection, schedule: Q04DX003 (ip), vehicle: saline with Tween-80 102 % of control and 105 % of control | dose: 1.7 mg/kg/injection, schedule: Q04DX003 (ip), vehicle: saline 110 % of control | dose: 1.8 mg/kg/injection, schedule: Q01DX015 (ip), vehicle: saline 91 % of control | dose: 2.0 mg/kg/injection, schedule: Q01DX Z (ip), vehicle: other 116 % of control | dose: 2.5 mg/kg/injection, schedule: Q04DX003 (ip), vehicle: saline 111 % of control | dose: 2.6 mg/kg/injection, schedule: Q04DX003 (ip), vehicle: saline 110 % of control | dose: 2.7 mg/kg/injection, schedule: Q01DX001 (ip), vehicle: saline 104 % of control and 120 % of control | dose: 3.0 mg/kg/injection, schedule: Q01DX001 (ip), vehicle: saline with Tween-80 93 % of control and 99 % of control | dose: 3.0 mg/kg/injection, schedule: Q01DX009 (ip), vehicle: saline with Tween-80 100 % of control | dose: 3.0 mg/kg/injection, schedule: Q04DX003 (ip), vehicle: saline with Tween-80 107 % of control and 108 % of control | dose: 4.0 mg/kg/injection, schedule: Q01DX001 (ip), vehicle: saline 114 % of control | dose: 4.0 mg/kg/injection, schedule: Q04DX003 (ip), vehicle: saline 124 % of control | dose: 6.0 mg/kg/injection, schedule: Q01DX001 (ip), vehicle: saline with Tween-80 99 % of control and 106 % of control | dose: 6.0 mg/kg/injection, schedule: Q01DX001 (ip), vehicle: saline 119 % of control | dose: 6.0 mg/kg/injection, schedule: Q04DX003 (ip), vehicle: saline with Tween-80 113 % of control and 115 % of control and 117 % of control | dose: 9.0 mg/kg/injection, schedule: Q01DX001 (ip), vehicle: saline 110 % of control | dose: 9.0 mg/kg/injection, schedule: Q04DX003 (ip), vehicle: saline with Tween-80 97 % of control | dose: 10.0 mg/kg/injection, schedule: Q04DX003 (ip), vehicle: saline 87 % of control | dose: 12.0 mg/kg/injection, schedule: Q01DX001 (ip), vehicle: saline with Tween-80 110 % of control and 122 % of control | dose: 12.0 mg/kg/injection, schedule: Q04DX003 (ip), vehicle: saline with Tween-80 105 % of control

c1cc2c3c(ccc4c3c1CCC4)CCC2
inactive: dose: 100.0 mg/kg/injection, schedule: Q04DX002 (ip), vehicle: gum acacia 91 % of control | dose: 200.0 mg/kg/injection, schedule: Q04DX002 (ip), vehicle: gum acacia 100 % of control | dose: 400.0 mg/kg/injection, schedule: Q04DX002 (ip), vehicle: gum acacia 95 % of control

Brc1cc(Br)c(I)c(Br)c1
inactive: [1] 102 % of control | dose: 100.0 mg/kg/injection, schedule: Q04DX003 (ip), vehicle: saline with Tween-80 96 % of control | dose: 200.0 mg/kg/injection, schedule: Q01DX009 (ip), vehicle: saline with Tween-80 101 % of control | dose: 200.0 mg/kg/injection, schedule: Q04DX003 (ip), vehicle: saline with Tween-80 108 % of control | dose: 400.0 mg/kg/injection, schedule: Q01DX009 (ip), vehicle: saline with Tween-80 101 % of control | dose: 400.0 mg/kg/injection, schedule: Q04DX003 (ip), vehicle: saline with Tween-80 103 % of control

CCOP(N)(=O)SC (stereo not given)
inactive: dose: 5.0 mg/kg/injection, schedule: Q01DX001 (ip), vehicle: saline 101 % of control

O=[N+]([O-])c1ccc(S(=O)C2CCCCC2Cl)c([N+](=O)[O-])c1 (stereo not given)
inactive: dose: 100.0 mg/kg/injection, schedule: Q01DX009 (ip), vehicle: Klucel (hydroxypropylcellulose) (HPC) 111 % of control

CC1(C)CCC2(C)CCCCC2C1O (stereo not given)
inactive: dose: 50.0 mg/kg/injection, schedule: Q04DX002 (ip), vehicle: saline with Tween-80 92 % of control | [2] 96 % of control | [3] 101 % of control

COC(=O)C1(C)COP(=O)(NC2CCCCC2)OC1 (stereo not given)
inactive: dose: 100.0 mg/kg/injection, schedule: Q01DX001 (ip), vehicle: saline 94 % of control | dose: 200.0 mg/kg/injection, schedule: Q01DX001 (ip), vehicle: saline 97 % of control | dose: 400.0 mg/kg/injection, schedule: Q01DX001 (ip), vehicle: saline 108 % of control

COc1cc(N(CCCl)CCCl)ccc1C=Nc1ccc2c(c1)ncn2C
inactive: dose: 75.0 mg/kg/injection, schedule: Q04DX002 (ip), vehicle: Klucel (hydroxypropylcellulose) (HPC) 112 % of control | dose: 150.0 mg/kg/injection, schedule: Q04DX002 (ip), vehicle: Klucel (hydroxypropylcellulose) (HPC) 101 % of control | dose: 300.0 mg/kg/injection, schedule: Q04DX002 (ip), vehicle: Klucel (hydroxypropylcellulose) (HPC) 108 % of control

O=C1CC=C(Nc2ccc(Br)cc2)C(=O)O1
inactive: [4] 106 % of control | [5] 108 % of control | dose: 400.0 mg/kg/injection, schedule: Q04DX003 (ip), vehicle: saline 108 % of control

CC1(C)COC(c2ccc3ccccc3c2)OC1
inactive: dose: 100.0 mg/kg/injection, schedule: Q04DX003 (ip), vehicle: Klucel (hydroxypropylcellulose) (HPC) 96 % of control | dose: 200.0 mg/kg/injection, schedule: Q04DX003 (ip), vehicle: Klucel (hydroxypropylcellulose) (HPC) 101 % of control | dose: 400.0 mg/kg/injection, schedule: Q04DX003 (ip), vehicle: Klucel (hydroxypropylcellulose) (HPC) 100 % of control

CCOC(=O)c1c(/N=C/c2ccc3c(c2)OCO3)sc2c1CCCC2
inactive: [2] 98 % of control | [3] 95 % of control | dose: 400.0 mg/kg/injection, schedule: Q04DX002 (ip), vehicle: saline with Tween-80 95 % of control

CCCCNC(C)(C)C(SSSC(c1ccco1)C(C)(C)NCCCC)c1ccco1 (stereo not given)
inactive: dose: 50.0 mg/kg/injection, schedule: Q01DX009 (ip), vehicle: saline with Tween-80 91 % of control | [1] 96 % of control | [4] 98 % of control | [5] 100 % of control

Cc1cccc(NCC(=O)NN)c1
inactive: dose: 100.0 mg/kg/injection, schedule: Q04DX002 (ip), vehicle: Klucel (hydroxypropylcellulose) (HPC) 100 % of control | dose: 200.0 mg/kg/injection, schedule: Q04DX002 (ip), vehicle: Klucel (hydroxypropylcellulose) (HPC) 115 % of control

CC(C)P(=S)(OCc1ccccc1)C(C)C
inactive: dose: 100.0 mg/kg/injection, schedule: Q01DX001 (ip), vehicle: saline with Tween-80 99 % of control | dose: 200.0 mg/kg/injection, schedule: Q01DX001 (ip), vehicle: saline with Tween-80 98 % of control | dose: 400.0 mg/kg/injection, schedule: Q01DX001 (ip), vehicle: saline with Tween-80 105 % of control
